Numbered stars: 1 amine (or outer) side, 2 acyl side, 3 side chain; on linkers, the order of the positions; unused ones are H or OH. Peptide text beside a SMILES is read from it. * marks the point of attachment. AMC = Cc1cc(=O)oc2cc(N*)ccc12; Suc = O=C(CCC(=O)[*:2])[*:1]

This is an account of results in publication PMC9117149, “USP14-regulated allostery of the human proteasome by time-resolved cryo-EM” (Nature, 2022).

Test [1] concerns the target T1, human 26S proteasome (peptidase activity) (Homo sapiens, UniProt P28074).
T1 construct: gene PSMB5; 20S core particle; with Proteasome subunit beta type-1; Proteasome subunit beta type-2; Proteasome subunit beta type-3; Proteasome subunit beta type-4; Proteasome subunit beta type-6; Proteasome subunit beta type-7
T1 sequence (P28074 60-263): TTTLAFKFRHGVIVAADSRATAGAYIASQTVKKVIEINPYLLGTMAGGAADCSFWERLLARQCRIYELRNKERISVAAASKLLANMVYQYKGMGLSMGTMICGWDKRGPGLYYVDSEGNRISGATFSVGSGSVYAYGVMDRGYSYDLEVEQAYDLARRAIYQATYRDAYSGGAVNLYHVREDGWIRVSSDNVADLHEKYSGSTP
The test is described as follows: AMC fluorescence. The test is classed as biochemical. The note with it: 10 μM substrate, 0.1 mM ATP, 0.5 mM MgCl2, 100 mM KCl, pH 7.5, 37 °C; USP14-free (also with USP14 variants).

Test [2] relates to T2, human 26S proteasome, AAA-ATPase motor (RPT1-RPT6).
T2 construct: gene PSMC2
The note with it: 0.5 mM ATP, 5 mM MgCl2, pH 7.5, 37 °C, with 300 nM Ubn-Sic1PY and RPN13; USP14-free.

T2 sequence (P35998 2-433): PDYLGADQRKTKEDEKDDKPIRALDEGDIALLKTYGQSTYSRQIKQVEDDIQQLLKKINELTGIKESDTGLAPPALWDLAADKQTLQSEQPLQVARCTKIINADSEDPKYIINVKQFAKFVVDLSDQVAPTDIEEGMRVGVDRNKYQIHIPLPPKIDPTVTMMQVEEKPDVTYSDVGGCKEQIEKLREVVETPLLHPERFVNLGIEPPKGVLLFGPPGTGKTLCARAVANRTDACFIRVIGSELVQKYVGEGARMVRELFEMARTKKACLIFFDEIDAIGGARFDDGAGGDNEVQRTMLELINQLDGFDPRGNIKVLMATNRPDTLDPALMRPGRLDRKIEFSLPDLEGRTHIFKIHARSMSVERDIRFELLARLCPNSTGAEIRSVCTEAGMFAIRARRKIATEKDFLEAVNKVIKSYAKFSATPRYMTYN
T2 sequence (P62191 2-440, further chain): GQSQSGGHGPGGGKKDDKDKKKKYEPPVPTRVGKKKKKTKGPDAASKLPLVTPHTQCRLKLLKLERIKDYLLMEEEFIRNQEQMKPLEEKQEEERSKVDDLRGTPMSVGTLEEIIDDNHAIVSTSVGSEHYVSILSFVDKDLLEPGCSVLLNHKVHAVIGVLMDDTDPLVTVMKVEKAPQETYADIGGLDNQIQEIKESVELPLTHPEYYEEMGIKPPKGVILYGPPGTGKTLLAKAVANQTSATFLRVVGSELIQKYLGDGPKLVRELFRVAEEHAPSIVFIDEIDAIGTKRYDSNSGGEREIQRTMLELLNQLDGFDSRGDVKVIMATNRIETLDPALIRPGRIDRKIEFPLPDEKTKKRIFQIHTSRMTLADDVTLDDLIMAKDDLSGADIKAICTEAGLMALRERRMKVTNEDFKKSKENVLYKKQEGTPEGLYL
T2 sequence (P43686 whole entry, further chain): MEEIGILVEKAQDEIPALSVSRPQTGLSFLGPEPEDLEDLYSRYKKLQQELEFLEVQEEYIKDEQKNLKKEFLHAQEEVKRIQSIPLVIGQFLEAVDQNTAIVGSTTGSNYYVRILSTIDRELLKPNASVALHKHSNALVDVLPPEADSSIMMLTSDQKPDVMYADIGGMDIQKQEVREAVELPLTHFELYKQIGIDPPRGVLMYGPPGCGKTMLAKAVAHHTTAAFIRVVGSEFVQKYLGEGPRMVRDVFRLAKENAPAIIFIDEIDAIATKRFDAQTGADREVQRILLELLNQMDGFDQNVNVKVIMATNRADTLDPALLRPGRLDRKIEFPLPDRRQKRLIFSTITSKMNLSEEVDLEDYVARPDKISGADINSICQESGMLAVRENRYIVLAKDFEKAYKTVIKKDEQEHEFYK
T2 sequence (P62333 whole entry, further chain): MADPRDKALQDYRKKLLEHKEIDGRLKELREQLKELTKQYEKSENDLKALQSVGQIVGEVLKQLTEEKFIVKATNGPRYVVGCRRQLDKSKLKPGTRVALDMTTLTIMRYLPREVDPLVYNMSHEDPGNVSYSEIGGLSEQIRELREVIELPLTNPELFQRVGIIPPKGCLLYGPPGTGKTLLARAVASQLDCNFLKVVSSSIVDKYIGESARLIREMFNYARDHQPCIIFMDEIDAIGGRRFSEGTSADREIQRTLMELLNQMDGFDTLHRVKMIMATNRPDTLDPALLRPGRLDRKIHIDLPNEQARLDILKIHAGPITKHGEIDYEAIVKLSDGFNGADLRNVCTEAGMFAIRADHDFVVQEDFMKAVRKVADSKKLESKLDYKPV
T2 sequence (P17980 whole entry, further chain): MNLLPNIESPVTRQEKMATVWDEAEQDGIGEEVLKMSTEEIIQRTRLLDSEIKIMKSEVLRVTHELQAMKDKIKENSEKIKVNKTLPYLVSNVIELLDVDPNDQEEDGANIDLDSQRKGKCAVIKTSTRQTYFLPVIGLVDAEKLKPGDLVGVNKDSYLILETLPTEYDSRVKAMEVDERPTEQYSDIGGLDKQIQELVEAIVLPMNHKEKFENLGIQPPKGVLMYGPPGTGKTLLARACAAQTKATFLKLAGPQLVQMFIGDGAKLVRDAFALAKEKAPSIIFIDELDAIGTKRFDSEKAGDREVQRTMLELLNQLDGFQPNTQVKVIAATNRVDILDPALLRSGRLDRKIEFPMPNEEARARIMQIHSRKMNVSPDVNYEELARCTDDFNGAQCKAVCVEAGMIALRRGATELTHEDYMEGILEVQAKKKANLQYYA
T2 sequence (P62195 2-406, further chain): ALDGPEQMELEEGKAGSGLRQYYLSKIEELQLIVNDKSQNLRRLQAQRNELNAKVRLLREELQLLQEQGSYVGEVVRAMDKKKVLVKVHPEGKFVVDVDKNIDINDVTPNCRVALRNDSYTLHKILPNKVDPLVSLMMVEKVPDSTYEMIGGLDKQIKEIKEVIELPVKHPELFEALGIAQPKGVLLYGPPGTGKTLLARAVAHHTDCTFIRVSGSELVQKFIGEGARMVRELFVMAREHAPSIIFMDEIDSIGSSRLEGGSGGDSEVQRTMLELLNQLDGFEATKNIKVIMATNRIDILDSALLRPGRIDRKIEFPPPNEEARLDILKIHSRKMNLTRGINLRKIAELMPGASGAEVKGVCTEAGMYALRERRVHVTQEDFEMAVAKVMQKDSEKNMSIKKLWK

For `Cc1cc(=O)oc2cc(NC(=O)[C@H](Cc3ccc(O)cc3)NC(=O)[C@@H](NC(=O)[C@H](CC(C)C)NC(=O)[C@H](CC(C)C)NC(=O)CCC(=O)O)C(C)C)ccc12` [Suc-LLVY-AMC] (Suc-LLVY-{AMC}), in test [1], the AMC fluorescence result is given as “Peptide hydrolysis by the human proteasomes was measured using fluorogenic substrate Suc-LLVY-AMC”. Turning to `Nc1ncnc2c1ncn2[C@@H]1O[C@H](COP(=O)(O)OP(=O)(O)OP(=O)(O)O)[C@@H](O)[C@H]1O` [ATP], in test [2], the “malachite green phosphate release” value is on record as “ATPase activity was quantified using malachite green phosphate assay kits”.
